Assay type in all cases: cell-based
Experiment [1] relates to Enterococcus faecalis VRE-1 (ATCC™ 29212). The experiment is described as follows: Antibacterial activity, MIC (NCCLS M7-A5). To be noted: BHI+ medium.
Experiment [2] has as its system Escherichia coli (ATCC™ 25922). Nature of the experiment: Antibacterial activity (NCCLS M7-A5). The settings on record: MH medium.
Experiment [3] concerns Staphylococcus aureus (ATCC™ 6538P). The experiment is described as follows: Antibacterial activity, MIC (NCCLS M7-A5). To be noted: MH medium, 35° C., 16 to 20 hours.
Experiment [4] deals with PC-3 (prostate adenocarcinoma). Nature of the experiment: In vitro tumor growth inhibition (GI50, propidium iodide). The settings on record: 96 hrs.
Experiment [5] deals with Streptococcus pneumoniae (LSPQ 3412). Nature of the experiment: Antibacterial activity, MIC (NCCLS M7-A5). The settings on record: MH medium +2% lysed horse blood.
Experiment [6] deals with Clostridium difficile (ATCC™ 9689). The experiment is described as follows: Antibacterial activity, MIC (NCCLS M11-A5, anaerobic). The settings on record: Clostridioides difficile. The protocol: Antibacterial activity of Compounds 1 and 2 (Table 7) was measured by determining the minimal inhibitory concentration (MIC) necessary to obtain a complete inhibition of bacteria growth in seven indicator strains, namely Staphylococcus aureus (ATCC™ 6538P), Staphylococcus aureus MRS3 (ATCC™ 700699), Enterococcus faecalis VRE-1 (ATCC™ 29212), Enterococcus faecalis VRE-2 (ATCC™ 51299), Escherichia coli (ATCC™ 25922), Streptococcus pneumoniae (LSPQ 3412) and Streptococcus pneumoniae PenR (LSPQ 3349). Indicator strains preparation and MIC determination were performed according to the National Committee for Clinical Laboratory Standards (NCCLS) guideline M7-A5 Methods for Dilution Antimicrobial Susceptibility Tests for Bacteria That Grow Aerobically; Approved Standard-Fifth Edition. (NCCLS document M7-A5, ISBN 1-56238-394-9; NCCLS, 940 West Valley Road, Suite 1400, Wayne, Pa. 19087-1898 USA), the content of which is incorporated herein by reference. MIC determination against C. difficile was performed according to National Committee for Clinical Laboratory Standards (NCCLS) guideline M11-A5 Methods for Antimicrobial Susceptibility Testing of Anaerobic Bacteria.
Compounds 1 and 2 were prepared as 100× stock solutions in DMSO, with concentrations ranging from 3.2 mg/mL to 0.003 mg/mL (a two-fold dilution series over 11 points). An aliquot of each 100× stock solution was diluted 50-fold in test medium described below to give a set of eleven (11) 2× solutions. 50 μL of each of the eleven 2× solutions was aliquoted into the corresponding well of a 12-well row, with the final well reserved for medium alone control.
Vancomycin (Sigma™), used as positive control compound, was prepared as 2× stock solutions in Mueller-Hinton test medium ranging from 64 μg/mL to 0.06 μg/ml (a two-fold dilution series over 11 points). An aliquot of 50 μL corresponding to each concentration (at 2×) was then transferred to 96-well microplates to obtain a series of eleven two-fold dilutions.
An isolated colony of each of the indicator strains was used to inoculate tubes containing 2 mL of test medium. […]

Experiment [7] concerns Staphylococcus aureus MRS3 (ATCC™ 700699). Nature of the experiment: Antibacterial activity, MIC (NCCLS M7-A5). The settings on record: MH medium, 35° C., 16 to 20 hours.
The test system of experiment [8] is Streptococcus pneumoniae PenR (LSPQ 3349). Nature of the experiment: Antibacterial activity, MIC (NCCLS M7-A5). To be noted: MH medium +2% lysed horse blood.
Experiment [9] concerns Enterococcus faecalis VRE-2 (ATCC™ 51299). Nature of the experiment: Antibacterial activity, MIC (NCCLS M7-A5). To be noted: BHI+ medium, 35° C., 16 to 20 hours.
In experiment [10] the test system is MDA-MB-231 (mammary gland adenocarcinoma). Nature of the experiment: In vitro tumor growth inhibition (GI50, propidium iodide). The settings on record: Homo sapiens, 96 hrs.
The subject of experiment [11] is HT-29 (colorectal carcinoma). The description is as above. To be noted: Homo sapiens, 96 hrs.
A further experiment concerns SF268 (CNS). Described as above. The settings on record: Homo sapiens; SF-268; 96 hrs.
Experiment [12] has as its system Saccharomyces cerevisiae FHCRC-50514. The experiment is described as follows: Antifungal activity, MIC (NCCLS M27-A). To be noted: FHCRC50514, after 24 hours, YPD medium. The protocol:
(§1) Testing of antifungal activity was performed according to NCCLS method (NCCLS. Reference Method for Broth Dilution Antifungal Susceptibility Testing of Yeasts; Approved Standard. NCCLS document M27-A (ISBN 1-56238-328-0). NCCLS, 940 West Valley Road, Suite 1400, Wayne, Pa. 19087-1898 USA; www.nccls.org.). Compound 1 was prepared as 100× stock solutions in DMSO, with concentrations ranging from 3.2 mg/mL to 0.003 mg/mL (a two-fold dilution series over 11 points). An aliquot of each 100× stock solution was diluted 50-fold in test medium described below to give a set of eleven (11) 2× solutions. 50 μL of each of the eleven 2× solutions was aliquoted into the corresponding well of a 12-well row, with the final well reserved for medium alone control. Inoculum density for each indicator strain was adjusted to OD600=0.1 in 5 mL 0.85% saline, then further diluted 1/1000 in YPD medium. 50 μL of the final dilution (in test medium) of each indicator strain was added to each well of a 12-well row. This brings the final dilution of the test article or control compound in solution to 1×. The final inoculum was approximately 5×10^4 CFU/ml.
(§2) Bacterial strains Streptococcus pneumoniae LSPQ 3412 and LSPQ 3349 were obtained from the “Laboratoire de Sante Publique du Quebec”. Saccharomyces cerevisiae FHCRC-50014 and FHCRC-50514 were obtained from the “Fred Hutchison Cancer Research Center”.

The test system of experiment [13] is Saccharomyces cerevisiae FHCRC-50014. The experiment is described as follows: Antifungal activity, MIC (NCCLS M27-A). To be noted: FHCRC50014, after 24 hours, YPD medium. The protocol:
as §1, §2

Molecules are shown by their SMILES. In brackets after ≈: the same amount, converted by molar mass. Like-named read-outs stand apart in the source and are kept apart here.

One may read the MIC as the smallest concentration in the dilution series that meets the test's criterion for growth inhibition. By GI50 is commonly meant the concentration that inhibits growth by half. High values mean lower sensitivity of the cells, low ones greater sensitivity of the cells. For the compound `CCC(C)c1cc2c(=O)c3ccc4c(OC)c5c(=O)c6c(O)ccc(O)c6c(=O)c5c(O)c4c3c(=O)c2c(=O)n1CC(=O)N1CC(C(=O)OC)NC(=O)C1C` (stereo not shown) [Compound 2], the MIC in experiment [1] (35° C., 16 to 20 hours) amounted to 1 µg/mL (≈ 1.33 µM); in experiment [3], 0.0625 µg/mL (≈ 0.0831 µM); in experiment [5] it was 1 µg/mL (≈ 1.33 µM); in experiment [6] (Brucella medium with hemin, vitamin K1 and 5% lysed horse blood, read-out: MIC), 2 µg/mL (≈ 2.66 µM); in experiment [7] it was 0.125 µg/mL (≈ 0.166 µM); in experiment [8], 1 µg/mL (≈ 1.33 µM). The MIC in [9] stood at 1 µg/mL (≈ 1.33 µM). Moreover, the Antibacterial activity entry in [2] is “inactive”. Moreover, the GI50 in experiment [4] was 4.61 µM; in [10], 4.04 µM; in experiment [11] it was 16.1 µM; in the experiment on SF268 (CNS), 2.63 µM.

In the case of `OC(Cn1cncn1)(Cn1cncn1)c1ccc(F)cc1F` [Fluconazole, reference compound], the MIC in [12] is 0.25 to 0.5 µg/mL (≈ 0.816 to 1.63 µM); in [13], 8 µg/mL (≈ 26.1 µM).

Take `CN[C@H](CC(C)C)C(=O)N[C@H]1C(=O)N[C@@H](CC(N)=O)C(=O)N[C@H]2C(=O)N[C@H]3C(=O)N[C@H](C(=O)N[C@H](C(=O)O)c4cc(O)cc(O)c4-c4cc3ccc4O)[C@H](O)c3ccc(c(Cl)c3)Oc3cc2cc(c3O[C@@H]2O[C@H](CO)[C@@H](O)[C@H](O)[C@H]2O[C@H]2C[C@](C)(N)[C@H](O)[C@H](C)O2)Oc2ccc(cc2Cl)[C@H]1O` [Vancomycin, reference compound]: the MIC in experiment [1] (35° C., 16 to 20 hours) came to 8 µg/mL (≈ 5.52 µM); in experiment [1] (when tested as control with Compound 2), 4 µg/mL (≈ 2.76 µM); in experiment [3] it was 1 µg/mL (≈ 0.69 µM); in experiment [5] it was 0.5 µg/mL (≈ 0.345 µM); in experiment [6], 0.5 µg/mL (≈ 0.345 µM); in experiment [7] it was 4 µg/mL (≈ 2.76 µM). The MIC in experiment [8] was 0.5 µg/mL (≈ 0.345 µM); in [9] it was 32 µg/mL (≈ 22.1 µM).
